Experimental data taken from EP0311193B1, “Antifungal fermentation product” (priority 1987, dated 1989).
Numbered stars: 1 amine (or outer) side, 2 acyl side, 3 side chain; on linkers, the order of the positions; unused ones are H or OH. Bridge positions count the residues as written; N and C are the ends. Square brackets hold non-standard residues; d marks the D form. Peptide text beside a SMILES is read from it. * marks the point of attachment. Orn(4R-OH,5R-OH) = O=C([C@H](C[C@@H](O)[C@@H](O)N[*:3])N[*:1])[*:2]; hTyr(3S-OH,4S-OH) = N[C@H](C(=O)O)[C@H](O)[C@@H](O)c1ccc(O)cc1; Pro(3S-OH,4S-Me) = C[C@H]1CN[C@H](C(=O)O)[C@H]1O; Gln(3R-OH) = NC(=O)C[C@@H](O)[C@H](N)C(=O)O; Hyp = O=C(O)[C@@H]1C[C@@H](O)CN1; X1 = CCC(C)CC(C)CCCCCCCCC(=O)*

How the values were obtained:
Candida albicans [1] = assay: agar dilution assay (MIC), expanded panel of strains; type: cell-based; settings: against 5 of 34 different strains of Candida albicans, 28°C, 48 hours
Method: The activity may be seen in an agar dilution assay employing a yeast nitrogen base dextrose agar medium. In carrying out the assay, Compound I was solubilized in 10 percent dimethyl sulfoxide (DMSO) supplemented with one drop of Tween 20. Twofold dilutions were made with sterile distilled water/10 percent DMSO to obtain final drug concentrations in the agar dilution assay plates ranging from 128 to 0.06 µg/ml.
The yeast cultures, maintained in yeast maltose (YM) broth, were transferred to fresh YM medium and incubated overnight at 35°C with shaking (250 rpm). After incubation, each culture was diluted in sterile saline to yield a final concentration of 3x10⁵ to 3x10⁶ colony forming units (CFU)/ml.
Each prepared plate was inoculated using a Denley Multipoint Inoculator (Denley, Sussex, England) which delivers approximately 0.001 milliliter to the agar surface resulting in inoculation of from 3x10² to 3x10³ CFUs. The plates were incubated at 28°C for 48 hours. The minimum inhibitory concentrations (MICs) were recorded as the lowest concentrations of drug showing no growth or less than three CFU/spot.
In a similar assay, Compound I was tested against an expanded panel of 34 different strains of Candida albicans and 13 different strains of Candida parapsilosis.

filamentous fungi = assay: disc diffusion antifungal assay, filamentous fungi; type: cell-based; settings: disc diffusion against the listed filamentous fungi; 28°C or 37°C, 24 hours
Method: (§1) This may be seen in an antifungal assay employing a disc diffusion method against yeasts and filamentous fungi (molds).
(§2) In the disc diffusion method, seeded assay plates are first prepared in one of the following manners according to the type of organism.
Inocula for filamentous fungi are prepared by scraping the surface of stock plates maintained on potato dextrose agar with a moistened sterile dacron swab. The spores and mycelia are then suspended in 10 milliliters of sterile potato dextrose broth and adjusted to 70 percent transmission at 660 nm.
(§3) For three strains of Candida albicans and one strain of Saccharomyces cerevisiae, sterile saline is employed in place of potato dextrose broth. Assay plates are prepared by dilution the inoculum into appropriate molten agar medium, cooled to 45°C to obtain a final concentration of 4 percent (volume/volume).
(§4) The seeded agar media thus prepared are dispensed into petri dishes for assays (11 milliliters per dish).
(§5) The samples to be tested for production of antifungal agent are applied to 6.2 mm. filter paper discs (25 microliter/disc) and air dried at 24°C. When the sample to be tested is a crude broth, it may be centrifuged prior to application. […] Following incubation, the inhibition zones are measured and recorded. […]

yeasts = assay: disc diffusion antifungal assay, yeasts; type: cell-based; settings: disc diffusion against the listed yeasts; 28°C or 37°C, 24 hours
Method: as §1, §2
Inocula for yeasts are prepared from overnight broth cultures then diluted into potato dextrose […] to a final concentration of either 40 percent or 70 percent transmission at 660 nm.
as §3, §4
as §5, with “application. The discs bearing the material to be tested are then applied employing sterile conditions to the seeded assay plates and the samples rewet with 25 percent sterile aqueous dimethylsulfoxide (25 µl/disc).” for “application.”

Candida albicans [2] = assay: mice experimentally infected with Candida albicans; type: in vivo
Description: These properties point to a new antifungal drug with great potential in the therapy of human mycotic infections.

red blood cell = assay: titration/hemolysis assay (red blood cell lysis); settings: highest drug concentration that did not lyse the red blood cells; 25°C, two hours; range tested 0.39 to 400 µg/ml in 5 percent dextrose
Method: Concentration of drug in the range of from 0.39 to 400 µg/ml in 5 percent dextrose and a drug free control were employed.
In carrying out the determination, the assay tubes prepared by mixing together 2 milliliters of appropriate drug dilution and 0.5 milliliter of red blood cell suspension were gently shaken to mix the contents and then the tubes were incubated at 25°C for two hours. At the end of this time, the tubes were examined visually for complete or partial red blood cell hemolysis and compared to a drug free control.

Structure (SMILES)	MIC (Candida albicans [1]) [µg/mL]	antifungal properties (inhibition zones) (filamentous fungi)	antifungal properties (inhibition zones) (yeasts)	eradication of Candida albicans from kidneys (Candida albicans [2]; kidneys of experimentally infected mice)	survival of mice infected with Candida albicans (Candida albicans [2]; mice infected with Candida albicans)	minimum lytic concentration (MLC) (red blood cell) [µg/mL]
CCC(C)CC(C)CCCCCCCCC(=O)N[C@H]1C[C@@H](O)[C@@H](O)NC(=O)[C@@H]2[C@@H](O)[C@@H](C)CN2C(=O)[C@H]([C@H](O)CC(N)=O)NC(=O)[C@H]([C@H](O)[C@@H](O)c2ccc(O)cc2)NC(=O)[C@@H]2C[C@@H](O)CN2C(=O)[C@H]([C@@H](C)O)NC1=O (stereo partly drawn) [Compound I, 1-[(4R, 5R) 4,5-dihydroxy N²-(10,12-dimethyl-1-oxotetradecyl)-L-ornithine]-5-(threo-3-hydroxy-L-glutamine)echinocandin B] (X1-[Orn(4R-OH,5R-OH)]T[Hyp][hTyr(3S-OH,4S-OH)][Gln(3R-OH)][Pro(3S-OH,4S-Me)]; lactam 1-C)	> 1	good antifungal properties	good antifungal properties	eradicate Candida albicans from kidneys	significantly prolong the survival	
C[C@@H]1[C@H](O)[C@@H](C)/C=C/C=C/C=C/C=C/C=C/C=C/C=C/[C@H](O[C@@H]2O[C@H](C)[C@@H](O)[C@H](N)[C@@H]2O)C[C@@H]2O[C@](O)(C[C@@H](O)C[C@@H](O)[C@H](O)CC[C@@H](O)C[C@@H](O)CC(=O)O[C@H]1C)C[C@H](O)[C@H]2C(=O)O [amphotericin B]						12.5
